Source: paper PMC12439166, “Dietary flavonoids form supramolecular assemblies, alter biochemistry, and enhance cell resilience” (Frontiers in Nutrition, 2025)

System: human fibroblasts
Test: TMT proteomics of fibroblasts with and without UV exposure, differential expression and pathway analysis
Type: cell-based
Details: result in words
Experimental: Human fibroblasts were obtained from Cell Applications Inc (Cat. # 106-05a) and were maintained in Dulbecco’s Modified Eagle medium (DMEM, Corning, Cat. #10-013-CV) with 10% fetal bovine serum (Gibco, Cat. #10082147) and 1% penicillin/streptomycin (Gibco, Cat. # 15070-063) in a humidified incubator with 5% CO2 at 37 °C. For ultraviolet radiation, fibroblasts were seeded in a 96-well plate at a density of 25,000 cells/well and maintained at 37 °C for 24 h. Cells were washed once with Hanks’ balanced salt solution (HBSS, Gibco, Cat. #14025-092), then treated for 1 h with different concentrations of compounds prepared in HBSS. Vitamin C (Sigma, Cat. # A5960) served as a positive control. Treated cells were exposed to ultraviolet light (UVP cross-linker, CL1000, 254 nm UV, 8 watts) at a total dose of 20 mJ/cm^2. Following irradiation, the HBSS was replaced with culture medium containing the same concentration of compounds as before irradiation, and cells were again maintained at 37 °C. Cell viability was measured at 24 h post-irradiation using CellTiter-Glo according to the manufacturer’s instructions (Promega, Cat.# G7571). Results were expressed as relative cell viability (%) with respect to control cells (cells without ultraviolet irradiation or compound treatment).
Frozen cell pellets were dissolved for 15 min in 6M Guanidinium Chloride at room temperature to lyse cells. Then, each solution was run on a 10 kDa filter (Pall, TX) and washed with 50 μL of TEAB buffer at 3000 rpm. FASP Digestion ([56]): A stock solution of Trypsin Platinum, Mass Spec Grade (Promega) at 100 μg/mL in 50 mM TEAB, and a specific volume of stock trypsin was added to each sample vial for each set of […] using a 1:50 ratio (Trypsin:Protein). Samples were incubated for 2 h at 50 °C and shaken/mixed at 350 rpm on an Eppendorf ThermoMixer C. TMT Labeling: Samples, now peptides, were labeled using 4 μL of TMTpro Mass Tag Labels (ThermoScientific). After labeling, samples were then shaken/mixed for 45 min to ensure labels were covalently bonded to peptides. The labeling reaction was quenched for 10 min using 1 μL of 5% hydroxyalamine. After quenching, samples were pooled into one 2 mL Eppendorf tube and then dried down using an Eppendorf Vacufuge Plus. Desalting Samples: Dried samples were resuspended in 300 μL of 0.1% TFA in ultrapure HPLC-grade water and vortexed to ensure full solubility. Samples were then desalted using Pierce^TM Peptide Desalting Spin Columns (ThermoScientific). Final eluates (desalted samples) contained 600 μL of 50% HPLC-grade Acetonitrile and 50% ultrapure HPLC-grade water. Desalted samples were then transferred to HPLC vials and were again dried down. […]

O=c1c(O[C@@H]2O[C@H](CO)[C@@H](O)[C@H](O)[C@H]2O)c(-c2ccc(O)c(O)c2)oc2cc(O)cc(O)c12 [isoquercitrin]
proteins/pathways up- and downregulated, exposed to UV radiation (UV-irradiated cells): upregulation of collagen and cell cycle/DNA repair proteins while downregulating proteins associated with autophagy, necroptosis, ferroptosis, lysosomal degradation, and other pathways | proteins/pathways up- and downregulated, without UV treatment (control conditions without UV): upregulated proteins associated with DNA repair pathways and downregulated inflammatory pathways
